What was measured:
[1] = target: T1, CDK9/CyclinT1 (Homo sapiens, UniProt P50750); assay: CDK9/CycT1 high ATP kinase assay (TR-FRET); assay type: biochemical; conditions: 2 mM ATP (high ATP); median; read-out: CDK9/CyclinT1, 2 mM ATP (high ATP) IC50 - [mol/l] (median)
T1 construct: Recombinant full-length His-tagged human CDK9 and CycT1; His-tag; purchased Life Technologies PV4131; host or cells: insect cells
How it was run: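 Full-length His-tagged human CDK9/CycT1 (insect cell) at ~0.5 µg/mL, preincubated with compound 15 min at 22 °C in Tris pH 8.0 buffer, then reacted 25 min with 2 mM ATP and 0.75 µM biotinylated peptide (final). Phospho-substrate detected by TR-FRET (anti-RB pSer807/811, Eu/XL665), 665/620 nm ratio normalised to no-inhibitor and no-enzyme controls.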

[2] = target: T2, CDK12 (Homo sapiens, UniProt Q9NYV4); assay: CDK12 nuclear protein level: immunofluorescence/high content analysis in CAL-120 cells; assay type: cell-based; conditions: for DC50: CAL-120 cells, 24 h, nuclear CDK12 staining intensity, median, read-out: CDK12 degradation IF DC50 - [mol/l] (median); for (IC50 CDK12 high ATP) to (Degradation DC50 CDK12) ratio: ratio of IC50 CDK12 hATP (2 mM ATP) to DC50 CDK12 (IF, CAL-120)
T2 construct: endogenous in cells; host or cells: CAL-120 human breast cancer cells (DSMZ ACC 459)
T2 sequence (Q9NYV4 whole entry): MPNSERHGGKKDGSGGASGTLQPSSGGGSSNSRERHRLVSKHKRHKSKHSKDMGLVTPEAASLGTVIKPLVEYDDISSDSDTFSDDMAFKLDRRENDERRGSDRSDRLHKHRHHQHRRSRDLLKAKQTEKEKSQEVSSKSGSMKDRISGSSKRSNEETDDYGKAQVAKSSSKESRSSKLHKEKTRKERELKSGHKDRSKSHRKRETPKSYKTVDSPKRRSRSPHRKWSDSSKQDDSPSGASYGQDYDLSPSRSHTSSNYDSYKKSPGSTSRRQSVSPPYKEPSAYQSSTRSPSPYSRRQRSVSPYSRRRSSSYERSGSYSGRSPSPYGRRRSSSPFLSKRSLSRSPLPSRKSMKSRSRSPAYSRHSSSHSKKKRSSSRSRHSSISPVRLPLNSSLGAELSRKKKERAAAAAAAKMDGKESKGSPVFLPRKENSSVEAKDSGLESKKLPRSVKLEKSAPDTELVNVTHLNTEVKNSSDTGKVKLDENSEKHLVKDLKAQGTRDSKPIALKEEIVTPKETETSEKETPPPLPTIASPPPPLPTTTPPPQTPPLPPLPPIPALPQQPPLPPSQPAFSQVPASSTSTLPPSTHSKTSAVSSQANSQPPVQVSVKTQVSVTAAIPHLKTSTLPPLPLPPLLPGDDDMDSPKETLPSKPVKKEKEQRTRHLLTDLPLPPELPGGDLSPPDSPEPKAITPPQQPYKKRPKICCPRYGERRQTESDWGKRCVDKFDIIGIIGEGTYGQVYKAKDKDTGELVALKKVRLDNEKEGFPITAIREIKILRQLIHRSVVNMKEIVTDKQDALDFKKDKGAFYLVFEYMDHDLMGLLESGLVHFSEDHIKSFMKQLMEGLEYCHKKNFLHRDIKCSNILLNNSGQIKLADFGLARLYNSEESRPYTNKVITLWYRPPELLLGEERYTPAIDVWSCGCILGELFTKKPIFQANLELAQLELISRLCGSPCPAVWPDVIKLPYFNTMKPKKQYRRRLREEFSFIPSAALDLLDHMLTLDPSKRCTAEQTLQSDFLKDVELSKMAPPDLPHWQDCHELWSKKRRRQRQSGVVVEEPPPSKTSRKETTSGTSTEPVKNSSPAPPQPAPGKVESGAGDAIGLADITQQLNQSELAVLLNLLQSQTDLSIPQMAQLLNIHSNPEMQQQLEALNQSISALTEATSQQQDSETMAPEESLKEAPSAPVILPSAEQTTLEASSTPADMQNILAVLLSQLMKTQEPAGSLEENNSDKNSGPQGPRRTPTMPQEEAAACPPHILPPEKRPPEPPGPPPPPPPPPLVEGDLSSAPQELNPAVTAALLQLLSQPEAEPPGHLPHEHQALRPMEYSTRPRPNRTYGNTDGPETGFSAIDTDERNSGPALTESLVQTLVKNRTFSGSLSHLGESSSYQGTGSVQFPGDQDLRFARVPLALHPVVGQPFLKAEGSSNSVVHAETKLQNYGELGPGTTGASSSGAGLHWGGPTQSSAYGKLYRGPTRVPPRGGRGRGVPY
T2 sequence (O75909 whole entry partner): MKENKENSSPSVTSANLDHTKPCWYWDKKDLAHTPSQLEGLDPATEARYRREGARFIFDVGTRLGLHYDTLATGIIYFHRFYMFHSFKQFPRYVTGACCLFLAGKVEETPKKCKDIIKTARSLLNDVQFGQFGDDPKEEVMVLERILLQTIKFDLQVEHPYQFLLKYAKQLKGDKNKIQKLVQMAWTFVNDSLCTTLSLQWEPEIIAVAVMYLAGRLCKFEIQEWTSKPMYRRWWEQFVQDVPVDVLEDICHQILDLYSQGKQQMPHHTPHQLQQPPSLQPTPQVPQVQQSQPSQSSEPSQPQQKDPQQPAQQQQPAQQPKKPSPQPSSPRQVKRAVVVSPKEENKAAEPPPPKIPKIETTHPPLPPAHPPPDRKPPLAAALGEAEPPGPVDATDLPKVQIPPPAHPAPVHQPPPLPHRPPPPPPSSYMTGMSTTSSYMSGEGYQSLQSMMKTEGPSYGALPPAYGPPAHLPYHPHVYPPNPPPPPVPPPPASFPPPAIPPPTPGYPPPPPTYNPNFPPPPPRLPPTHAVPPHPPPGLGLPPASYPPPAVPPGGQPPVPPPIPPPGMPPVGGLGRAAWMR
How it was run: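 Cells were exposed to compounds in dose-response for 24 h at 37 °C, then PFA-fixed, immunostained for CDK12 and counterstained with Hoechst before confocal imaging. Nuclear CDK12 intensity was normalized to DMSO and control. DC50 is the concentration giving 50% reduction of nuclear staining.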

[3] = target: T3, CYCLIN K (Homo sapiens, UniProt O75909); assay: CYCLIN K nuclear protein level: immunofluorescence/high content analysis in CAL-120 cells; assay type: cell-based; conditions: 24 h, nuclear CCNK staining intensity, median, read-out: CYCLIN K degradation IF, DC50- [mol/l] (median)
T3 construct: endogenous in cells; host or cells: CAL-120 human breast cancer cells (DSMZ ACC 459)
T3 sequence (O75909 whole entry): as the sequence (O75909 whole entry partner) above
T3 sequence (Q9NYV4 whole entry partner): as the sequence (Q9NYV4 whole entry) above
Description: 7. CYCLIN K Nuclear Protein Level: Immunofluorescence/High Content Analysis
In the context of the present invention, the term “DC50 Cyclin K” refers to the DC50 values obtained according to the assay described in this section (7) herein below, i.e. the DC50 values for the degradation of Cyclin K.
CAL-120 human breast cancer cells (DSMZ ACC 459) are seeded in 1536-well microtiter plates (800 cells per well) containing 50 nanoL of compounds in Dose-Response. Control wells received DMSO or Reference Example 1. Plates are then incubated for 24 h at 37° C. in an humidified incubator and fixed with 4% PFA for 10 min. Then immunofluorescence (IF) against CYCLIN K (ThermoFisher Scientific CCNK Antibody # PA5-85020, rabbit, 1:200 dilution) is performed using standard IF protocols. Cells are then stained with Hoechst 33342 (Life Technologies, H-1399, 0.1 microg/mL) and imaged on an automated confocal microscopy system (e.g. Perkin Elmer Opera Phenix). Nuclear and cytoplasmic intensity as well as the nuclear/cytoplasmic intensity ratio is determined by automated image analysis using custom generated scripts (MetaXpress). Data is then transferred to Genedata Screener software, normalized to DMSO and control and DC50 values (degrading concentration to achieve 50% reduction of nuclear CCNK staining intensity relative to controls) are reported.

T1 sequence (P50750 whole entry): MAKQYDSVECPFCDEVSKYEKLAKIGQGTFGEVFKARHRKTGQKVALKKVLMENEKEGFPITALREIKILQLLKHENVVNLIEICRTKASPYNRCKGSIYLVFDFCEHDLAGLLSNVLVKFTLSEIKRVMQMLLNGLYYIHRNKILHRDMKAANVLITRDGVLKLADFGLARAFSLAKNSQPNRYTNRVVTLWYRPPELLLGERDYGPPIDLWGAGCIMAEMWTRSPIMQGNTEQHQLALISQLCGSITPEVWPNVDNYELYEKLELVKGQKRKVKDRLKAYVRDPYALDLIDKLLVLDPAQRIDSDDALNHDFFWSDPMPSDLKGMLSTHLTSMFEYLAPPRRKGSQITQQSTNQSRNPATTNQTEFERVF
T1 sequence (O60563 whole entry partner): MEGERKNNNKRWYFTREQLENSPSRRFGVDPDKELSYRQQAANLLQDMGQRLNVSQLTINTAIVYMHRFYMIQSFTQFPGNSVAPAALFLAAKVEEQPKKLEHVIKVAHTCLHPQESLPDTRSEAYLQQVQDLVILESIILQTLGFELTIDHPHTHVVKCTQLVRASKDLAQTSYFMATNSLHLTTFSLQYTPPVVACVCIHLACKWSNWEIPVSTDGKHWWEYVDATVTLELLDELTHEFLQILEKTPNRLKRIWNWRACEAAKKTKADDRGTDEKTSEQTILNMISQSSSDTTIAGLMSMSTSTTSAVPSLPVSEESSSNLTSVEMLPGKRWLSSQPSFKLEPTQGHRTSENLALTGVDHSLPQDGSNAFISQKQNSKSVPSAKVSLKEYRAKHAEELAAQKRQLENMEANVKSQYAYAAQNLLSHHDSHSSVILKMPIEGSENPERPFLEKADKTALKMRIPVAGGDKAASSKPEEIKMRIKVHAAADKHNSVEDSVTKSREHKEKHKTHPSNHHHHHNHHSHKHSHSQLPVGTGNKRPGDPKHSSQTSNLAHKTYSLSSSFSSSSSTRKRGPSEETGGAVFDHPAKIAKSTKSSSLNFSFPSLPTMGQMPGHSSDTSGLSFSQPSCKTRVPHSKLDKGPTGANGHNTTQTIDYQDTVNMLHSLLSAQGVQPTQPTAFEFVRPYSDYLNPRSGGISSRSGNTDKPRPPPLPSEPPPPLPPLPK

Row | SMILES | IC50 [1] [nM] | DC50 [2] [nM] | DC50 [3] [nM] | (IC50 CDK12 high ATP) to (Degradation DC50 CDK12) ratio [2]
1 | O[C@H]1CC[C@@H](n2nc(NCc3nc4ccccc4[nH]3)c3ncc(C4CC4)nc32)CC1 [Example 51, cis-4-(3-{[(1H-benzimidazol-2-yl)methyl]amino}-6-cyclopropyl-1H-pyrazolo[3,4-b]pyrazin-1-yl)cyclohexan-1-ol] | > 20000 | 10.7 | 4.46 | –
2 | CN1CCC(n2nc(NCc3nc4ccccc4[nH]3)c3ncc(C4CC4)nc32)CC1 [Example 1, N-[(1H-benzimidazol-2-yl)methyl]-6-cyclopropyl-1-(1-methylpiperidin-4-yl)-1H-pyrazolo[3,4-b]pyrazin-3-amine] | > 20000 | 4.2 | 7.1 | >2380
3 | O[C@H]1C[C@@H](Cn2nc(NCc3nc4ccccc4[nH]3)c3ncc(C4CC4)nc32)C1 [Example 71, cis-3-[(3-{[(1H-benzimidazol-2-yl)methyl]amino}-6-cyclopropyl-1H-pyrazolo[3,4-b]pyrazin-1-yl)methyl]cyclobutan-1-ol] | > 20000 | 27.7 | 8.83 | –
4 | COCCC(C)n1nc(NCc2nc3ccccc3[nH]2)c2ncc(C3CC3)nc21 (single isomer, unassigned; (-)) [Example 58, (−)-N-[(1H-benzimidazol-2-yl)methyl]-6-cyclopropyl-1-[4-methoxybutan-2-yl]-1H-pyrazolo[3,4-b]pyrazin-3-amine] | > 20000 | 27.2 | 15.6 | >735
5 | CN1CCCC(n2nc(NCc3nc4ccccc4[nH]3)c3ncc(C4CC4)nc32)CC1 (single isomer, unassigned) [Example 37, (+) or (−)-N-[(1H-benzimidazol-2-yl)methyl]-6-cyclopropyl-1-[(4R*)-1-methylazepan-4-yl]-1H-pyrazolo[3,4-b]pyrazin-3-amine] | > 20000 | 12.6 | 1.72 | >1589
6 | O[C@H]1C[C@H](Cn2nc(NCc3nc4ccccc4[nH]3)c3ncc(C4CC4)nc32)C1 [Example 70, trans-3-[(3-{[(1H-benzimidazol-2-yl)methyl]amino}-6-cyclopropyl-1H-pyrazolo[3,4-b]pyrazin-1-yl)methyl]cyclobutan-1-ol] | > 20000 | 10.8 | 11.6 | –
7 | c1ccc2[nH]c(CNc3nn(C4CCOC4)c4nc(C5CC5)cnc34)nc2c1 (racemic) [Example 10, (±)-N-[(1H-benzimidazol-2-yl)methyl]-6-cyclopropyl-1-[oxolan-3-yl]-1H-pyrazolo[3,4-b]pyrazin-3-amine] | > 20000 | 40.8 | 159 | >4901
8 | Cc1ccc2[nH]c(CNc3nn(C4CCN(C)CC4)c4nc(C5CC5)cnc34)nc2c1 [Example 6, 6-cyclopropyl-N-[(5-methyl-1H-benzimidazol-2-yl)methyl]-1-(1-methylpiperidin-4-yl)-1H-pyrazolo[3,4-b]pyrazin-3-amine] | ≥ 12700 | 13.1 | 0.263 | >1526
9 | CN(C)CCn1nc(NCc2nc3ccccc3[nH]2)c2ncc(C3CC3)nc21 [Example 68, N-[(1H-benzimidazol-2-yl)methyl]-6-cyclopropyl-1-[2-(dimethylamino)ethyl]-1H-pyrazolo[3,4-b]pyrazin-3-amine] | > 20000 | 29.1 | 20.7 | >687
10 | OC1(Cn2nc(NCc3nc4ccccc4[nH]3)c3ncc(C4CC4)nc32)CCCC1 [Example 73, 1-[(3-{[(1H-benzimidazol-2-yl)methyl]amino}-6-cyclopropyl-1H-pyrazolo[3,4-b]pyrazin-1-yl)methyl]cyclopentan-1-ol] | > 20000 | 112 | 53.2 | >90
11 | CC1CC(n2nc(NCc3nc4ccccc4[nH]3)c3ncc(C4CC4)nc32)CCN1C (racemic) [Example 41, (±)-cis/trans-N-[(1H-benzimidazol-2-yl)methyl]-6-cyclopropyl-1-(1,2-dimethylpiperidin-4-yl)-1H-pyrazolo[3,4-b]pyrazin-3-amine] | > 20000 | 4.05 | 2.3 | –
12 | O[C@H]1C[C@@H](n2nc(NCc3nc4ccccc4[nH]3)c3ncc(C4CC4)nc32)C1 [Example 40, cis-3-(3-{[(1H-benzimidazol-2-yl)methyl]amino}-6-cyclopropyl-1H-pyrazolo[3,4-b]pyrazin-1-yl)cyclobutan-1-ol] | > 20000 | 2.55 | 5.35 | >7840
13 | O=CO.c1ccc(-n2nc(NCc3nc4ccccc4[nH]3)c3ncc(C4CC4)nc32)cc1 [Example 13, formic acid—N-[(1H-benzimidazol-2-yl)methyl]-6-cyclopropyl-1-phenyl-1H-pyrazolo[3,4-b]pyrazin-3-amine (1/1)] | > 20000 | 43.9 | 3.11 | >455
14 | CC(C)(O)C1CC(n2nc(NCc3nc4ccccc4[nH]3)c3ncc(C4CC4)nc32)C1 (mixture of isomers) [Example 48, 2-[cis/trans-3-(3-{[(1H-benzimidazol-2-yl)methyl]amino}-6-cyclopropyl-1H-pyrazolo[3,4-b]pyrazin-1-yl)cyclobutyl]propan-2-ol] | > 20000 | 7.12 | 11.3 | –
15 | c1ccc2[nH]c(CNc3nn(C4CCNCC4)c4nc(C5CC5)cnc34)nc2c1 [Example 12, N-[(1H-benzimidazol-2-yl)methyl]-6-cyclopropyl-1-(piperidin-4-yl)-1H-pyrazolo[3,4-b]pyrazin-3-amine] | > 20000 | 8.53 | 2.16 | >2344
16 | OCCn1nc(NCc2nc3ccccc3[nH]2)c2ncc(C3CC3)nc21 [Example 66, 2-(3-{[(1H-benzimidazol-2-yl)methyl]amino}-6-cyclopropyl-1H-pyrazolo[3,4-b]pyrazin-1-yl)ethan-1-ol] | > 20000 | 19.4 | 20.3 | >1116
17 | CC(C)(O)CCn1nc(NCc2nc3ccccc3[nH]2)c2ncc(C3CC3)nc21 [Example 76, 4-(3-{[(1H-benzimidazol-2-yl)methyl]amino}-6-cyclopropyl-1H-pyrazolo[3,4-b]pyrazin-1-yl)-2-methylbutan-2-ol] | > 20000 | 2.17 | 8.11 | >9202
18 | c1ccc2[nH]c(CNc3nn(C4CCC4)c4nc(C5CC5)cnc34)nc2c1 [Example 49, N-[(1H-benzimidazol-2-yl)methyl]-1-cyclobutyl-6-cyclopropyl-1H-pyrazolo[3,4-b]pyrazin-3-amine] | > 20000 | 29.2 | 25.7 | >685
19 | Fc1ccc2[nH]c(CNc3nn(C4CCOCC4)c4nc(C5CC5)cnc34)nc2c1F [Example 32, 6-cyclopropyl-N-[(4,5-difluoro-1H-benzimidazol-2-yl)methyl]-1-(oxan-4-yl)-1H-pyrazolo[3,4-b]pyrazin-3-amine] | > 20000 | 11.5 | 0.877 | –
20 | OCC1(Cn2nc(NCc3nc4ccccc4[nH]3)c3ncc(C4CC4)nc32)CCC1 [Example 74, {1-[(3-{[(1H-benzimidazol-2-yl)methyl]amino}-6-cyclopropyl-1H-pyrazolo[3,4-b]pyrazin-1-yl)methyl]cyclobutyl}methanol] | > 20000 | 15.1 | 13.6 | >660
21 | c1ccc2[nH]c(CNc3nn(CC4CCC4)c4nc(C5CC5)cnc34)nc2c1 [Example 75, N-[(1H-benzimidazol-2-yl)methyl]-1-(cyclobutylmethyl)-6-cyclopropyl-1H-pyrazolo[3,4-b]pyrazin-3-amine] | > 20000 | 135 | 124 | >148
